Calls of active or inactive are those of the source. The rule behind the calls is not given here.
Assays:
[1] = biological target: cGMP-specific 3',5'-cyclic phosphodiesterase (Homo sapiens, UniProt O76074); experiment: Inhibition of human PDE5A1 (535-860 residues) expressed in Escherichia coli BL21 incubated for 15 mins using [3H]-cGMP as substrate by liquid scintillation counting method
[2] = biological target: Cone cGMP-specific 3',5'-cyclic phosphodiesterase subunit alpha' (Homo sapiens, UniProt P51160); experiment: Inhibition of human PDE6C (2-854 residues) expressed in Sf9 cells incubated for 15 mins using [3H]-cGMP as substrate by liquid scintillation counting method
Cone cGMP-specific 3',5'-cyclic phosphodiesterase subunit alpha', sequence (P51160 whole entry, the tested form may be a part): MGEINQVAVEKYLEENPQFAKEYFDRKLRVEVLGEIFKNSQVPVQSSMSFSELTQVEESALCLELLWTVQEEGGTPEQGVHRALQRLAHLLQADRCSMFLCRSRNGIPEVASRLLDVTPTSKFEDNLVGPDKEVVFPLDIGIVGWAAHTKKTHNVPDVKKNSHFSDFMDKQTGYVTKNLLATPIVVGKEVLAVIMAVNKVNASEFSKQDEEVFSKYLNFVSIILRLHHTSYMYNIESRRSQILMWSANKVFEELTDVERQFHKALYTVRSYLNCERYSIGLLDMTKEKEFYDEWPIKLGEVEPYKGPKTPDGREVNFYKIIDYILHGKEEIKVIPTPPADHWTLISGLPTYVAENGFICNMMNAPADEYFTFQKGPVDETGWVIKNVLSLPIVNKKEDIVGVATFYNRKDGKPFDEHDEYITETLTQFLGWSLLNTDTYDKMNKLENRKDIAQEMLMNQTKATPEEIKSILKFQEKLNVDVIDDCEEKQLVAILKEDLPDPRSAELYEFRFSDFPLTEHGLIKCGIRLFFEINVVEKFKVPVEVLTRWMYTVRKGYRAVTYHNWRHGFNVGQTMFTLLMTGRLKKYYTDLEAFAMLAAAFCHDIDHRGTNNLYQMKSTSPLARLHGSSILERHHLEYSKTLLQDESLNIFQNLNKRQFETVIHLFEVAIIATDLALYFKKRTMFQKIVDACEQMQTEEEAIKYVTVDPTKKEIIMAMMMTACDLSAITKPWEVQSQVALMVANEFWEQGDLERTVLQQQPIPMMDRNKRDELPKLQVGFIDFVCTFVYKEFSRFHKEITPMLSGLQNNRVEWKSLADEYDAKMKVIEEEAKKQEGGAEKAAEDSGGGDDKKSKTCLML

[3] = biological target: DNA topoisomerase 2-alpha (Homo sapiens) (UniProt P11388); experiment: Inhibition of Top2 (unknown origin) mediated supercoiled DNA relaxation at 100 uM
DNA topoisomerase 2-alpha (Homo sapiens), sequence (P11388 whole entry, the tested form may be a part): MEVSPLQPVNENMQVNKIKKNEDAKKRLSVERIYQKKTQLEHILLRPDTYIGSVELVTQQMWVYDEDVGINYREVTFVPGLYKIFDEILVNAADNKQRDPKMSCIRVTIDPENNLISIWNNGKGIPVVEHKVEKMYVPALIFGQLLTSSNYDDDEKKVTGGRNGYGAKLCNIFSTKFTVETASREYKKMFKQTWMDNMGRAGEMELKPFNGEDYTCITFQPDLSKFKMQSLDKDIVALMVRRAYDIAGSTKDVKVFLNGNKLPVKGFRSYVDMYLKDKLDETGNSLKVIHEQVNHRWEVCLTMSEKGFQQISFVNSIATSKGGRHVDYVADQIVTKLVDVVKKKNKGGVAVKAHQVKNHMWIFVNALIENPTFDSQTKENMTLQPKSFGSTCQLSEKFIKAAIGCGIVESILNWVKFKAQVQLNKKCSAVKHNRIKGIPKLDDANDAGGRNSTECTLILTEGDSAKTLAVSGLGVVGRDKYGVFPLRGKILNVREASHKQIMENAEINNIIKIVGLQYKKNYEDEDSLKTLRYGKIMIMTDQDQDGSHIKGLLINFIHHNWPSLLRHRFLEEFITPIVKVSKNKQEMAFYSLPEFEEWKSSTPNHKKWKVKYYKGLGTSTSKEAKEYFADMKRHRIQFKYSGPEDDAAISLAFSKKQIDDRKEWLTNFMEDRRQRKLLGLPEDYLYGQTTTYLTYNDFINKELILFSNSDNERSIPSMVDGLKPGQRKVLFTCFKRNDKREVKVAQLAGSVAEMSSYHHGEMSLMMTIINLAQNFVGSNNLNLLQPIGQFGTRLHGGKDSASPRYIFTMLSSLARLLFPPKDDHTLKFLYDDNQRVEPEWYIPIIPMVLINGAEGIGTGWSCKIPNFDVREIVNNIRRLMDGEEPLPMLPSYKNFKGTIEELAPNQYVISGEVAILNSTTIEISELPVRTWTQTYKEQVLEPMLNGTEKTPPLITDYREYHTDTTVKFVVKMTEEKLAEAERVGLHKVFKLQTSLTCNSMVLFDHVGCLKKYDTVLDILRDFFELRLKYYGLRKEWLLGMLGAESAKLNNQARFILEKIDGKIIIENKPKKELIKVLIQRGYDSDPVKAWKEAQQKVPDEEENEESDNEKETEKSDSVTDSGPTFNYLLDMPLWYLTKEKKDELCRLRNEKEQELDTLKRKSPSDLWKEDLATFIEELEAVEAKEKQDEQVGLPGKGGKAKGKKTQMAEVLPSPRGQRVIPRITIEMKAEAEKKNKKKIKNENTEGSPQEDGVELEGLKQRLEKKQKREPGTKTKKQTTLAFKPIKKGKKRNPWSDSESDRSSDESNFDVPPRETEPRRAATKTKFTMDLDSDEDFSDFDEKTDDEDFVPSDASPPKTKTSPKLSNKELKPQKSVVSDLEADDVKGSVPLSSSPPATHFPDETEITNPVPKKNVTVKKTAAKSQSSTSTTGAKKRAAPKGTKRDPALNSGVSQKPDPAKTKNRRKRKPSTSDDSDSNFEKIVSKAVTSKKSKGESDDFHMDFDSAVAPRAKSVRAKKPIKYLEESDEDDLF

[4] = biological target: cAMP and cAMP-inhibited cGMP 3',5'-cyclic phosphodiesterase 10A (Homo sapiens, UniProt Q9Y233); experiment: Inhibition of human PDE10A catalytic domain (449 to 770 residues) using [3H]-cAMP as substrate after 15 mins by liquid scintillation counting method
cAMP and cAMP-inhibited cGMP 3',5'-cyclic phosphodiesterase 10A, sequence (Q9Y233 whole entry, the tested form may be a part): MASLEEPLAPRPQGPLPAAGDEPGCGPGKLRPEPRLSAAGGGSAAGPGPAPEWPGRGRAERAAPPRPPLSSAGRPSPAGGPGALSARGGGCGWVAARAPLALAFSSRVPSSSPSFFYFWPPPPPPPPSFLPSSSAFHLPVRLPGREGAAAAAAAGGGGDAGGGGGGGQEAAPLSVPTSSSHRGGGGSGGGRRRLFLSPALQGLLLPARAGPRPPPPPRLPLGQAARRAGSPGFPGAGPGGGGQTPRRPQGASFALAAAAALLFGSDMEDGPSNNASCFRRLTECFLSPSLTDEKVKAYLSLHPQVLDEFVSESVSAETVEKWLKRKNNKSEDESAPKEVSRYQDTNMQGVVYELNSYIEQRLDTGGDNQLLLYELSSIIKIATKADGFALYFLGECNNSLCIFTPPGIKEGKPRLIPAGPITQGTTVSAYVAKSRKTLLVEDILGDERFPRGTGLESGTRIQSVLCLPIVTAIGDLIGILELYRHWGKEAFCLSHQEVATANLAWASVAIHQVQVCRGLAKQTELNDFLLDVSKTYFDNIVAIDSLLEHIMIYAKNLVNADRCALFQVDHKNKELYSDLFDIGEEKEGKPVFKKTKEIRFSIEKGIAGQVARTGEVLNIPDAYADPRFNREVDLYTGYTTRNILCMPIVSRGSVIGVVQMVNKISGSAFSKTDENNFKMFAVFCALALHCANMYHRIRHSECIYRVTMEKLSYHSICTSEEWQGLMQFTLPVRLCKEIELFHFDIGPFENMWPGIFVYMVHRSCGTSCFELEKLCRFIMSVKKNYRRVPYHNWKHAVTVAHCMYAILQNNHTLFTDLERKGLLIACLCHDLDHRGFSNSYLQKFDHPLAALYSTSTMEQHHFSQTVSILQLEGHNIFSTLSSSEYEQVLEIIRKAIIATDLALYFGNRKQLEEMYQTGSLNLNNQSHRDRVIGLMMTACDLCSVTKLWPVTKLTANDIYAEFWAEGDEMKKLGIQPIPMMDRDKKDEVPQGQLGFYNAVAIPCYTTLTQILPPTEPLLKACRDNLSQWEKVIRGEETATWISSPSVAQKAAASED

[5] = biological target: Dual 3',5'-cyclic-AMP and -GMP phosphodiesterase 11A (Homo sapiens, UniProt Q9HCR9); experiment: Inhibition of PDE11A catalytic domain (unknown origin) using [3H]-cAMP or [3H]-[…] as substrate after 15 mins by liquid scintillation counting method
[6] = Half life in Sprague-Dawley rat at 2.5 mg/kg, iv after 24 hrs by LC-MS/MS analysis; format: ADME, organism-based; settings: in vivo
[7] = Tmax in Sprague-Dawley rat at 2.5 mg/kg, iv after 24 hrs by LC-MS/MS analysis; format: ADME, organism-based; settings: in vivo
[8] = Cmax in Sprague-Dawley rat at 2.5 mg/kg, iv after 24 hrs by LC-MS/MS analysis; format: ADME, organism-based; set-up: route intravenous, time 24 hrs, dose 2.5 mg/kg; settings: in vivo
[9] = AUC (0 to infinity) in Sprague-Dawley rat at 2.5 mg/kg, iv after 24 hrs by LC-MS/MS analysis; format: ADME, organism-based; set-up: route intravenous, time 24 hrs, dose 2.5 mg/kg; settings: in vivo
[10] = MRT (0 to t) in Sprague-Dawley rat at 2.5 mg/kg, iv after 24 hrs by LC-MS/MS analysis; format: ADME, organism-based; settings: in vivo
[11] = Half life in Sprague-Dawley rat at 5 mg/kg, po after 24 hrs by LC-MS/MS analysis; format: ADME, organism-based; settings: in vivo
[12] = Tmax in Sprague-Dawley rat at 5 mg/kg, po after 24 hrs by LC-MS/MS analysis; format: ADME, organism-based; settings: in vivo
[13] = Cmax in Sprague-Dawley rat at 5 mg/kg, po after 24 hrs by LC-MS/MS analysis; format: ADME, organism-based; set-up: route oral, dose 5 mg/kg, time 24 hrs; settings: in vivo
[14] = AUC (0 to t) in Sprague-Dawley rat at 5 mg/kg, po after 24 hrs by LC-MS/MS analysis; format: ADME, organism-based; set-up: route oral, time 24 hrs, dose 5 mg/kg; settings: in vivo
[15] = AUC (0 to infinity) in Sprague-Dawley rat at 5 mg/kg, po after 24 hrs by LC-MS/MS analysis; format: ADME, organism-based; set-up: route oral, time 24 hrs, dose 5 mg/kg; settings: in vivo
[16] = Oral bioavailability in Sprague-Dawley rat at 5 mg/kg after 24 hrs by LC-MS/MS analysis; format: ADME, organism-based; settings: in vivo
[17] = Inhibition of human PDE5A1 D563A mutant expressed in Escherichia coli BL21 incubated for 15 mins using [3H]-cGMP as substrate by liquid scintillation counting method
[18] = Acute toxicity in KM mouse at 1000 to 1500 mg/kg, po administered as single dose measured every 24 hrs for 14 days; format: organism-based; settings: in vivo, 336 h, dose 1000-1500 mg/kg, time 14 day
Rattus norvegicus [19] = experiment: Suppression of hypertension pressure in Wistar rat model of pulmonary hypertension at 20 mg/kg/day, po for 3 weeks; format: functional, organism-based
Rattus norvegicus [20] = experiment: Suppression of hypertension pressure in Wistar rat model of pulmonary hypertension assessed as dilation of small pulmonary vessels arteries at 20 mg/kg/day, po for 3 weeks by H and E staining based microscopy; format: functional, organism-based
Cytochrome P450 1A2 = biological target: T1, Cytochrome P450 1A2 (Homo sapiens, UniProt P05177); experiment: Inhibition of CYP1A2 (unknown origin); format: ADME
T1 sequence (P05177 whole entry): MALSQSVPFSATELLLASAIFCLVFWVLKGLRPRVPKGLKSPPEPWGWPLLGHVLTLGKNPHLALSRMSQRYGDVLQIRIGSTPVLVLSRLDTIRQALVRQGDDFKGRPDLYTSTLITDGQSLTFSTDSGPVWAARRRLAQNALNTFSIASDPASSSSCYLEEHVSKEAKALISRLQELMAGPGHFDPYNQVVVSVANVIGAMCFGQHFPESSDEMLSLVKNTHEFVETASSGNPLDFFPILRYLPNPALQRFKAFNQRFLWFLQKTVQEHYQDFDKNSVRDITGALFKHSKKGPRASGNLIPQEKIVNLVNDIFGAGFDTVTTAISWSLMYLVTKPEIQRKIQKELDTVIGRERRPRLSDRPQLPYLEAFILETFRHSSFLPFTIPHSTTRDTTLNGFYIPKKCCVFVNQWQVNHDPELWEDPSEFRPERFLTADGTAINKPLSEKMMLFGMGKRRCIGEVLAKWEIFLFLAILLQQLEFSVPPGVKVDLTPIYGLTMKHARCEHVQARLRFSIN

Cytochrome P450 2B6 = biological target: T2, Cytochrome P450 2B6 (Homo sapiens, UniProt P20813); experiment: Inhibition of CYP2B6 (unknown origin); format: ADME
T2 sequence (P20813 whole entry): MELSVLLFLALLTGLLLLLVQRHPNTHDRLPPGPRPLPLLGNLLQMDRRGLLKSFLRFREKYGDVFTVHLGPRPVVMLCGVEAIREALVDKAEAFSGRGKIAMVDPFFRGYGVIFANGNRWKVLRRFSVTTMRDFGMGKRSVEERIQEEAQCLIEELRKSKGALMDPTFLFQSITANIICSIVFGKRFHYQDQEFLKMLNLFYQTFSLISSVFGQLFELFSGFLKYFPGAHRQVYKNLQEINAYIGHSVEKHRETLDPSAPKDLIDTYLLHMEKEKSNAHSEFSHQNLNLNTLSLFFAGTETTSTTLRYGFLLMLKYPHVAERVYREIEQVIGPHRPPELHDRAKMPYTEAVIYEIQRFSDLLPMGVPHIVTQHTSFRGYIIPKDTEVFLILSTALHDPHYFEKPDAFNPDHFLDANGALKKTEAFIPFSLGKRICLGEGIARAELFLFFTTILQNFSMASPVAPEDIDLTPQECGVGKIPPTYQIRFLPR

Cytochrome P450 2C9 = Cytochrome P450 2C9 (Homo sapiens, UniProt P11712); experiment: Inhibition of CYP2C9 (unknown origin); format: ADME
Cytochrome P450 2C9, sequence (P11712 whole entry): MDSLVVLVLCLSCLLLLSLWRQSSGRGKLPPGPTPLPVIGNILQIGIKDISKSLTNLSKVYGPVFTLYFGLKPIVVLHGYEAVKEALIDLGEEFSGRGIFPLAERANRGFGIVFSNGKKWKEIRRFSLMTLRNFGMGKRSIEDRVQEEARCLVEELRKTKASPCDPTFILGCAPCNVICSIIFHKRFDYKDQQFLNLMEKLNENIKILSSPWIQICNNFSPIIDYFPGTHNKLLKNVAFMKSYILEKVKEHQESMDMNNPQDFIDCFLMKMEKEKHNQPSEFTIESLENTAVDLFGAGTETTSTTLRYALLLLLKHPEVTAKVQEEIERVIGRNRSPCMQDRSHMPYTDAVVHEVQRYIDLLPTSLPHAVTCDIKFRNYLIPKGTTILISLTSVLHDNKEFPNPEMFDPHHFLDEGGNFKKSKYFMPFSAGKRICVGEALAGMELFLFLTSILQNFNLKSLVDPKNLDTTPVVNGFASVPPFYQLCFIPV

Cytochrome P450 2D6 = Cytochrome P450 2D6 (Homo sapiens, UniProt P10635); experiment: Inhibition of CYP2D6 (unknown origin); format: ADME
Cytochrome P450 2D6, sequence (P10635 whole entry): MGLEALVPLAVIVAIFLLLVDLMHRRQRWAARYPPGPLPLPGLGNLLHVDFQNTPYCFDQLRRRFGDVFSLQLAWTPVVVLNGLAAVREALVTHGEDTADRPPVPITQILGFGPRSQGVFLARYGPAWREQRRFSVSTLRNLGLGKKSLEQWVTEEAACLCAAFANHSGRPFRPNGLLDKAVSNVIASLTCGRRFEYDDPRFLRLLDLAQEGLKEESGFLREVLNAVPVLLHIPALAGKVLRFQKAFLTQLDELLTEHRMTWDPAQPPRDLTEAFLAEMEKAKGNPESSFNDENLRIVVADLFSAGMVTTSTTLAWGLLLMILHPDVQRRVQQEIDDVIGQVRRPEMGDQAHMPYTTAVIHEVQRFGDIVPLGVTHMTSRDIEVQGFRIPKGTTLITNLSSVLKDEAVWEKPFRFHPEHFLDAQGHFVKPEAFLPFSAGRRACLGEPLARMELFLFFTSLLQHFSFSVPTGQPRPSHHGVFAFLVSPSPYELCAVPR

Cytochrome P450 3A4 = Cytochrome P450 3A4 (Homo sapiens, UniProt P08684); experiment: Inhibition of CYP3A4 (unknown origin); format: ADME
Cytochrome P450 3A4, sequence (P08684 whole entry): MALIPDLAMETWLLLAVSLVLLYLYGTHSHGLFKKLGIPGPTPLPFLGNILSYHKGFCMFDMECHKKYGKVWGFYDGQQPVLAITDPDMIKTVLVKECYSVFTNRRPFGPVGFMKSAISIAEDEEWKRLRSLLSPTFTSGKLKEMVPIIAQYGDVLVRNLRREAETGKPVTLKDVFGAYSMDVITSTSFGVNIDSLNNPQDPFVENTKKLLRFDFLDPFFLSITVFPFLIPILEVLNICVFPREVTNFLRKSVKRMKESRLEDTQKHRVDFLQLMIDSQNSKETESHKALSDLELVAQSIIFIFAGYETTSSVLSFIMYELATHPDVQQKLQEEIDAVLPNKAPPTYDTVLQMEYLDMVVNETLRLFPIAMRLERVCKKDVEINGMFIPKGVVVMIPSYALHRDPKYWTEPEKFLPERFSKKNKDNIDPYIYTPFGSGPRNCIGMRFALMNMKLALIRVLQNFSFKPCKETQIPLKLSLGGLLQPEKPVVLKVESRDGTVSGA

[21] = biological target: Voltage-gated inwardly rectifying potassium channel KCNH2 (Homo sapiens, UniProt Q12809); experiment: Inhibition of human ERG expressed in CHO cells by patch-clamp electrophysiology method; format: cell-based
[22] = Acute toxicity in KM mouse at 1000 to 1500 mg/kg, po administered as single dose measured every 24 hrs for 14 days relative to control; format: organism-based; settings: in vivo, 336 h, dose 1000-1500 mg/kg, time 14 day

What does the source list for `COc1ccc2c3c([nH]c2c1)[C@@H]1N(CC3)C(=O)c2c(OC)cccc2N1C`?
IC50 [1]: 0.042 µM; IC50 [2]: > 150 µM; inhibition [3]: inactive; IC50 [4]: 3 µM; IC50 [5]: > 30 µM; half-life [6]: 13.2 min; Tmax [7]: 4.98 min; Cmax [8]: 1800 ng/mL; AUC(0-inf) [9]: 520 ng·h/mL; MRT last at 24 h [10]: 8.4 min; half-life [11]: 85.8 min; Tmax [12]: 49.8 min; Cmax [13]: 54.4 ng/mL; AUC(0-t) at 24 h [14]: 146 ng·h/mL; AUC(0-inf) [15]: 155 ng·h/mL; bioavailability [16]: 14%; IC50 [17]: 2.48 µM; Activity [18]: Non-Toxic; Activity (Rattus norvegicus [19]): Active; Activity (Rattus norvegicus [20]): Active; IC50 (Cytochrome P450 1A2): 10 µM; IC50 (Cytochrome P450 2B6): 10 µM; IC50 (Cytochrome P450 2C9): 10 µM; IC50 (Cytochrome P450 2D6): 10 µM; IC50 (Cytochrome P450 3A4): 10 µM; IC50 [21]: 20 µM; Activity [22]: > 1.5 g/kg
